Data reported in patent US20240374510A1, “COMPOSITIONS, USES AND METHODS FOR TREATMENT OF PERIODONTAL DISEASE” (THE UNIVERSITY OF BRITISH COLUMBIA, priority 2023, published 2024).
One block for each molecule: values may come before it.

Tests used:
ITGB6 [1] = assay: Rescue of β6 integrin gene expression in GECs by RT-qPCR; assay type: cell-based, human
Method: GECs were seeded into cell culture dishes and allowed to grow to confluency for two days in their complete growth medium. The cells were then rinsed once with PBS and switched to FBS-free DMEM for 2 h in the presence or absence of one of: one of the suspensions of gefitinib-microparticles as above, one of the suspensions of respective control microparticles as above or 0.3 μM gefitinib. HB-EGF (5 ng/ml) and TGF-β1 (2 ng/ml; Millipore) were then added to the cells for a further 24 h.
The cells were then rinsed with PBS and used for RNA isolation and quantitative real-time reverse transcription PCR (RT-qPCR). Briefly, total RNA was extracted using PuroSPIN™ MINI Spin Columns (Luna Nanotech, Inc., Markham, ON, Canada) and the LogSpin method (Yaffe et al., 2012), and RNA concentration and purity were determined by spectrophotometry (NanoDrop One, Thermo Fisher Scientific, Waltham, MA, USA). 1 μg of total RNA was reverse-transcribed into cDNA using the High-Capacity cDNA Reverse Transcription Kit (Applied Biosystems, Thermo Fisher Scientific). […]
Asparagine-linked glycosylation 9 (ALG9) and glyceraldehyde-3-phosphate dehydrogenase (GAPDH) were used as reference genes for the target gene ITGB6 in triplicates. […] The data were analyzed using the Applied Biosystems Relative Quantification Analysis Module. […]

ITGB6 [2] = conditions: Bi et al., 2020; cited from earlier work
[3] = tested on: human gingival epithelial cell line (GEC); assay: MTT test of cell viability and proliferation; assay type: cell-based; conditions: 24 h, unencapsulated gefitinib
Method: The spontaneously immortalized human gingival epithelial cell line (GEC; (Mäkelä et al., 1998)) was maintained in a humidified incubator at +37° C. with 95% relative humidity and 5% CO2 in DMEM supplemented with 23 mM sodium bicarbonate, 20 mM HEPES, 50 μg/ml streptomycin sulfate, 100 U/ml penicillin and 10% heat-inactivated fetal bovine serum (FBS; Gibco). […]
The MTT test (CellTiter Non-radioactive Cell Proliferation Assay, Promega, Madison, WI, USA) was used to assess the effect of the microparticle formulations on cell viability and proliferation (Twarużek et al., 2018). […] The Solubilization/Stop Solution was then added to the culture wells for 24 h to solubilize the formazan product, and the absorbance at 570 nm was recorded with a microplate reader (iMark, Bio-Rad Laboratories, Hercules, CA, USA). […]
In each test, the cells were exposed to the formulation being tested for 24 h and then analyzed for cell numbers using the MTT test. Absorbance values of the untreated samples in each replicate experiment were set to 1, and the mean±s.e.m. of the relative results of 10-18 replicated experiments is presented. *, relative to untreated cells; +, difference between the same concentration of gefitinib and control microparticles; */+, p<0.05; **/++, p<0.01; ***/+++, p<0.001. […]

[4] = In-vitro release rate of gefitinib by the dialysis sack method; assay type: physicochemical; conditions: artificial saliva and cell culture medium
Method: The release rate of gefitinib from microparticles as described herein into each of two different liquids was tested. The two test liquids were: artificial saliva (SAE0149, Sigma Aldrich) and Dulbecco's Modified Eagle Medium (DMEM; Gibco, Life Technologies, Inc., Burlington, ON, Canada). These liquids were used to simulate the environment of the oral cavity and body fluid, respectively.
In each of these in-vitro experiments, a dry powder of spray-dried microparticles according to one of the tested formulations was mixed into the applicable test liquid at a concentration of 20 μg dry powder per ml of test liquid.
The in-vitro release behaviors of the formulations identified as (*1), (*2), (*3), and (*4) in Table 2 were each tested by the dialysis sack method (cutoff molecular weight 8 kDa; Spectra Por; Spectrum Chemical Mfg. Corp., New Brunswick, NJ, USA). All samples were incubated at room temperature with continuous shaking at 70 rpm. […] The fluid was analyzed for gefitinib content by HPLC. The release rate of gefitinib from suspensions of dry powders in liquid was calculated from the ratio of released gefitinib to the total gefitinib encapsulated in the powders.
The release rate of unencapsulated gefitinib was measured according to the same protocol described above for the spray-dried microparticles.

Molecule: TGF-β1: transforming growth factor-β1, used to upregulate ITGB6
upregulation of ITGB6 expression (ITGB6 [1]; TGF-β1 alone, 2 ng/ml, 24 h): about seven-fold

Molecule: C=CC(=O)Nc1cc2c(Nc3ccc(F)c(Cl)c3)ncnc2cc1OCCCN1CCOCC1 [canertinib]
blocking of ITGB6 downregulation by HB-EGF (ITGB6 [2]): capable of dose-dependently blocking ITGB6 downregulation

Molecule: CS(=O)(=O)CCNCc1ccc(-c2ccc3ncnc(Nc4ccc(OCc5cccc(F)c5)c(Cl)c4)c3c2)o1 [lapatinib]
blocking of ITGB6 downregulation by HB-EGF (ITGB6 [2]): capable of dose-dependently blocking ITGB6 downregulation

release rate of gefitinib, in words [4]: quickly released
Molecule: COc1cc2ncnc(Nc3ccc(F)c(Cl)c3)c2cc1OCCCN1CCOCC1 [gefitinib]
gefitinib concentration giving the corresponding GEC growth inhibition (baseline levels) [3]: 0.3 µM | blocking of ITGB6 downregulation by HB-EGF (ITGB6 [2]): capable of dose-dependently blocking ITGB6 downregulation

Molecule: C#Cc1cccc(Nc2ncnc3cc(OCCOC)c(OCCOC)cc23)c1 [erlotinib]
blocking of ITGB6 downregulation by HB-EGF (ITGB6 [2]): capable of dose-dependently blocking ITGB6 downregulation

Molecule: COc1cc2ncnc(Nc3ccc(F)c(Cl)c3)c2cc1NC(=O)/C=C/CN1CCCCC1 [dacomitinib]
blocking of ITGB6 downregulation by HB-EGF (ITGB6 [2]): capable of dose-dependently blocking ITGB6 downregulation

B1: HB-EGF: EGFR ligand heparin-binding EGF-like growth factor (protein, UniProt Q99075 63-148, looked up)
Heparin-binding EGF-like …: DLQEADLDLLRVTLSSKPQALATPNKEEHGKRKKKGKGLGKKRDPCLRKYKDFCIHGECKYVKELRAPSCICHPGYHGERCHGLSL
reduction of the TGF-β1 upregulation of ITGB6 (ITGB6 [1]; addition of HB-EGF 5 ng/ml to TGF-β1): about 60%
